{
  "source": "ChEMBL document CHEMBL5257025",
  "about": "“Artemisinin-Derived Dimers: Potent Antimalarial and Anticancer Agents” (J Med Chem, 2016)",
  "tested_on": "Plasmodium berghei",
  "experiment": "In vivo antimalarial activity against Plasmodium berghei infected mouse model assessed as survival time at 8 mg/kg, po in presence of Mefloquine hydrochloride",
  "data": [
    {"smiles": "CO[C@H]1O[C@@H]2O[C@@]3(C)CC[C@H]4[C@H](C)CC[C@@H]([C@H]1C)[C@@]24OO3", "values": [
      {"measurement": "survival time", "result": 23, "unit": "days"}
    ]}
  ]
}
